Reference: US9994564B2, “Myosin II ATPase inhibitor compounds” (priority 2014, dated 2018)
Values joined by “and” are separate entries in the source; they are usually repeats but may differ in a detail not shown here. Identical values can stand only once.

Experiments:
[1] = system: adult mouse bladder smooth muscle; conditions: 10 uM; tissue depolarized using potassium chloride; cited from earlier work
[2] = system: rat bladder strips; test: Spontaneous contractions and basal tone of rat bladder strips; format: cell-based
Description: (§1) Experimental materials and methods: All chemical were from Sigma (St. Louis, USA) except (±) blebbistatin (racemic blebbistatin) was from Tocris (Ellisville, Mo.). […] Rat bladder body and aorta were obtained from 17 (275-300 gram) adult male Sprague-Dawley (SD) rats (Charles River; Raleigh, N.C.). All animal studies were approved by the Animal Institute Committee of the Albert Einstein College of Medicine.
(§2) In vitro organ bath studies: The in vitro contractility studies were performed as previously described by Zhang X, Kuppam D, Aydin M, Melman A, DiSanto M. “In vitro and in vivo relaxation of corpus cavernosum smooth muscle by the selective myosin II inhibitor, blebbistatin.” J Sex Med 2009; 6:2661-71, Sandhu K S, Chua R G, Zhang X, et al. “Regional heterogeneity in expression of the sphingosine-1-phosphate pathway in the female rat lower urinary tract”; Am J Obstet Gynecol 2009; 200:576-7; Chua R G, Calenda G, Zhang X, et al. “Testosterone regulates erectile function and Vcsal expression in the corpora of rats”; Mol Cell Endocrinol 2009; 303:67-73. Bladder strips were mounted longitudinally and aortic rings horizontally in a 5 ml organ bath—Multi-Myograph Model 810MS (bladder) or Model 610M (aorta) (Danish Myo Technology; Aarhus, Denmark). The myograph was connected in line to a PowerLab 4/30 Data Acquisition System (ADInstruments; Colorado Springs, Colo.) and in turn to a Dual-Core processor Pentium computer for real-time monitoring of physiological force. The smooth muscle strips were equilibrated at least 1 hour in Krebs-Henseleit (Krebs) buffer at 37° C. with continuous bubbling of 95% O2 and 5% CO2 and buffer was changed every 15 minutes (min). Strips were continuously adjusted to resting tension (0.5 g for rat bladder and 1 g for human bladder (Yamamoto M, Harm S C, Grasser W A, Thiede M A. “Parathyroid hormone-related protein in the rat urinary bladder: a smooth muscle relaxant produced locally in response to mechanical stretch.” Proc Natl Acad Sci USA 1992; 89:5326-30. After equilibration, rat detrusor was contracted with 60 mM KCl and the force induced by cumulative concentrations (10-5-10-1 M) of carbachol (CC) or electrical field stimulation (EFS) at varying frequencies of 2-32 Hz, pulse duration 1.5 ms, train 5 s, and 80 V, was normalized to that KCl response. Next, all strips were pre-contracted with 60 mM KCl, or 1 μM CC (rat bladder), or 20 nM endothelin-1 (ET-1) (human bladder) and allowed to reach stable tension and then the relaxant effects of increasing doses of blebbistatin were evaluated. […] Additionally, the influence of blebbistatin (10 μM) on rat detrusor spontaneous activity and basal tone was evaluated.

[3] = biological target: Myosin II ATPase in pig cardiac muscle (Sus scrofa, UniProt P79293); conditions: in vitro, read-out: IC50, inhibition of Myosin II ATPase; cited from earlier work
Sequence of Myosin II ATPase in pig cardiac muscle (P79293 whole entry): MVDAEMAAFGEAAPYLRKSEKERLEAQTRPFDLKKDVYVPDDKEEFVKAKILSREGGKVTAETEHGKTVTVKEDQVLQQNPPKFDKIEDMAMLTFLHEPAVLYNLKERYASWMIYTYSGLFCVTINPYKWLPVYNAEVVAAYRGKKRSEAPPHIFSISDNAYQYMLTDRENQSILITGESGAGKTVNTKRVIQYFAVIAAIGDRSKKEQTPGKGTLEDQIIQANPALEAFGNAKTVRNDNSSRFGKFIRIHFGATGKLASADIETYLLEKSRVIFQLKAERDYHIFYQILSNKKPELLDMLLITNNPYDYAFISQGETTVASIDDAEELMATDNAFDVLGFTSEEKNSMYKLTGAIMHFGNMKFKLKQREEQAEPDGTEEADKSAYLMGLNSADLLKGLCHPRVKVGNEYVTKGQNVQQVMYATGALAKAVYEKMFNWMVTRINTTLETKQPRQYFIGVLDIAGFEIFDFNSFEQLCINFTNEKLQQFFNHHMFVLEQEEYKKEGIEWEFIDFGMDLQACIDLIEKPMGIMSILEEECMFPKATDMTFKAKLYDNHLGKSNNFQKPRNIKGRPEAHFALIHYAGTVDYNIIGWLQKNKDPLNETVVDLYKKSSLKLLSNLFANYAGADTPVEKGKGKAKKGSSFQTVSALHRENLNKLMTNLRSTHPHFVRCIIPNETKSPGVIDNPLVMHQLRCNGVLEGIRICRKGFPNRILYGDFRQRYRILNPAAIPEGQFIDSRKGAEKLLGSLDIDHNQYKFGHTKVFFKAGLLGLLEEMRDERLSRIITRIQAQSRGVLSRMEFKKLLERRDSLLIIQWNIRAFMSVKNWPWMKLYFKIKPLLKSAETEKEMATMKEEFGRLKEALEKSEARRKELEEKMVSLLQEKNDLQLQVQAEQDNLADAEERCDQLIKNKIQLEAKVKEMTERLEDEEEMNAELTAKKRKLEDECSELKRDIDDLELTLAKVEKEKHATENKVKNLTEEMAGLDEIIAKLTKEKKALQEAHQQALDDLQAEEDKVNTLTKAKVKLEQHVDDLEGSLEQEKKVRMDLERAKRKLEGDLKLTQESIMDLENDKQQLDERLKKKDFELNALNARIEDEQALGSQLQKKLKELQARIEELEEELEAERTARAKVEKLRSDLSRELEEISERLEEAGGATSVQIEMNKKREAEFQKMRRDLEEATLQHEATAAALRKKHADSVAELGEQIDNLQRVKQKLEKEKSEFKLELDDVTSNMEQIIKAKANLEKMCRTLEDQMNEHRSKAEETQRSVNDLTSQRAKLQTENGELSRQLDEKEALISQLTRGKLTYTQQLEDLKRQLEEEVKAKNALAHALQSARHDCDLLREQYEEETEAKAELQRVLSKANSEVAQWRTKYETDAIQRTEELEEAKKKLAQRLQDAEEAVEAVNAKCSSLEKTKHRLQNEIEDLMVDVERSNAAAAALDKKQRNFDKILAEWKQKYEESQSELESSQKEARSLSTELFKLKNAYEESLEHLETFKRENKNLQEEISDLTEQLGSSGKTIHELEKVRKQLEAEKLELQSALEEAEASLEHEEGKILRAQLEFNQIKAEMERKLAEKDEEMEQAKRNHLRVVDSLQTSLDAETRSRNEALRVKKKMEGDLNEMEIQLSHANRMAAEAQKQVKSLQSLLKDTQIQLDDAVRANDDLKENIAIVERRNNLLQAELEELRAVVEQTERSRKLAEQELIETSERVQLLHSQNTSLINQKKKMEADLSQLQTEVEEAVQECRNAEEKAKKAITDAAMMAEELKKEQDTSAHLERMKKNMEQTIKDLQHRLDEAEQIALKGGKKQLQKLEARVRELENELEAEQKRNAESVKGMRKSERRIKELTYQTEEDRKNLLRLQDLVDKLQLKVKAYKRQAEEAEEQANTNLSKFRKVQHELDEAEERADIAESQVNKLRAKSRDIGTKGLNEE

[4] = system: rat bladder smooth muscle strip (detrusor); test: Pre-incubation with blebbistatin: electrical field stimulation-induced rat bladder contraction; format: cell-based; conditions: pre-incubation 10 μM for 30 min, 32 Hz
Description: as §1
In vitro organ bath studies: The in vitro contractility studies were performed as previously described by Zhang X, Kuppam D, Aydin M, Melman A, DiSanto M. “In vitro and in vivo relaxation of corpus cavernosum smooth muscle by the selective myosin II inhibitor, blebbistatin.” J Sex Med 2009; 6:2661-71, Sandhu K S, Chua R G, Zhang X, et al. “Regional heterogeneity in expression of the sphingosine-1-phosphate pathway in the female rat lower urinary tract”; Am J Obstet Gynecol 2009; 200:576-7; Chua R G, Calenda G, Zhang X, et al. “Testosterone regulates erectile function and Vcsal expression in the corpora of rats”; Mol Cell Endocrinol 2009; 303:67-73. […] Next, all strips were pre-contracted with 60 mM KCl, or 1 μM CC (rat bladder), or 20 nM endothelin-1 (ET-1) (human bladder) and allowed to reach stable tension and then the relaxant effects of increasing doses of blebbistatin were evaluated. […]

[5] = system: rat bladder smooth muscle strip (detrusor); test: Relaxation of rat bladder strips pre-contracted with 60 mM KCl or 1 μM carbachol (organ bath); format: cell-based; conditions: for relaxation of KCl and CC evoked detrusor contraction: 60 mM KCl or 1 μM CC pre-contraction, maximal pre-contraction = 100%; for bladder relaxation in vitro, enantiomer compared with racemic blebbistatin mixture: in vitro studies
Description: as §1
In vitro organ bath studies: The in vitro contractility studies were performed as previously described by Zhang X, Kuppam D, Aydin M, Melman A, DiSanto M. “In vitro and in vivo relaxation of corpus cavernosum smooth muscle by the selective myosin II inhibitor, blebbistatin.” J Sex Med 2009; 6:2661-71, Sandhu K S, Chua R G, Zhang X, et al. “Regional heterogeneity in expression of the sphingosine-1-phosphate pathway in the female rat lower urinary tract”; Am J Obstet Gynecol 2009; 200:576-7; Chua R G, Calenda G, Zhang X, et al. “Testosterone regulates erectile function and Vcsal expression in the corpora of rats”; Mol Cell Endocrinol 2009; 303:67-73. Bladder strips were mounted longitudinally and aortic rings horizontally in a 5 ml organ bath—Multi-Myograph Model 810MS (bladder) or Model 610M (aorta) (Danish Myo Technology; Aarhus, Denmark). The myograph was connected in line to a PowerLab 4/30 Data Acquisition System (ADInstruments; Colorado Springs, Colo.) and in turn to a Dual-Core processor Pentium computer for real-time monitoring of physiological force. The smooth muscle strips were equilibrated at least 1 hour in Krebs-Henseleit (Krebs) buffer at 37° C. with continuous bubbling of 95% O2 and 5% CO2 and buffer was changed every 15 minutes (min). Strips were continuously adjusted to resting tension (0.5 g for rat bladder and 1 g for human bladder (Yamamoto M, Harm S C, Grasser W A, Thiede M A. “Parathyroid hormone-related protein in the rat urinary bladder: a smooth muscle relaxant produced locally in response to mechanical stretch.” Proc Natl Acad Sci USA 1992; 89:5326-30. After equilibration, rat detrusor was contracted with 60 mM KCl and the force induced by cumulative concentrations (10-5-10-1 M) of carbachol (CC) or electrical field stimulation (EFS) at varying frequencies of 2-32 Hz, pulse duration 1.5 ms, train 5 s, and 80 V, was normalized to that KCl response. Next, all strips were pre-contracted with 60 mM KCl, or 1 μM CC (rat bladder), or 20 nM endothelin-1 (ET-1) (human bladder) and allowed to reach stable tension and then the relaxant effects of increasing doses of blebbistatin were evaluated. For rat detrusor, after pre-incubation with blebbistatin (10 μM) for 30 min, its inhibitory effect on CC (1 μM) induced contractility or aforementioned EFS mediated contractility was also tested. Additionally, the influence of blebbistatin (10 μM) on rat detrusor spontaneous activity and basal tone was evaluated.

[6] = biological target: Non-muscle Myosin IIA ATPase (Homo sapiens, UniProt P35579); conditions: read-out: IC50, inhibition of Non-muscle Myosin IIA ATPase; cited from earlier work
Sequence of Non-muscle Myosin IIA ATPase (P35579 whole entry): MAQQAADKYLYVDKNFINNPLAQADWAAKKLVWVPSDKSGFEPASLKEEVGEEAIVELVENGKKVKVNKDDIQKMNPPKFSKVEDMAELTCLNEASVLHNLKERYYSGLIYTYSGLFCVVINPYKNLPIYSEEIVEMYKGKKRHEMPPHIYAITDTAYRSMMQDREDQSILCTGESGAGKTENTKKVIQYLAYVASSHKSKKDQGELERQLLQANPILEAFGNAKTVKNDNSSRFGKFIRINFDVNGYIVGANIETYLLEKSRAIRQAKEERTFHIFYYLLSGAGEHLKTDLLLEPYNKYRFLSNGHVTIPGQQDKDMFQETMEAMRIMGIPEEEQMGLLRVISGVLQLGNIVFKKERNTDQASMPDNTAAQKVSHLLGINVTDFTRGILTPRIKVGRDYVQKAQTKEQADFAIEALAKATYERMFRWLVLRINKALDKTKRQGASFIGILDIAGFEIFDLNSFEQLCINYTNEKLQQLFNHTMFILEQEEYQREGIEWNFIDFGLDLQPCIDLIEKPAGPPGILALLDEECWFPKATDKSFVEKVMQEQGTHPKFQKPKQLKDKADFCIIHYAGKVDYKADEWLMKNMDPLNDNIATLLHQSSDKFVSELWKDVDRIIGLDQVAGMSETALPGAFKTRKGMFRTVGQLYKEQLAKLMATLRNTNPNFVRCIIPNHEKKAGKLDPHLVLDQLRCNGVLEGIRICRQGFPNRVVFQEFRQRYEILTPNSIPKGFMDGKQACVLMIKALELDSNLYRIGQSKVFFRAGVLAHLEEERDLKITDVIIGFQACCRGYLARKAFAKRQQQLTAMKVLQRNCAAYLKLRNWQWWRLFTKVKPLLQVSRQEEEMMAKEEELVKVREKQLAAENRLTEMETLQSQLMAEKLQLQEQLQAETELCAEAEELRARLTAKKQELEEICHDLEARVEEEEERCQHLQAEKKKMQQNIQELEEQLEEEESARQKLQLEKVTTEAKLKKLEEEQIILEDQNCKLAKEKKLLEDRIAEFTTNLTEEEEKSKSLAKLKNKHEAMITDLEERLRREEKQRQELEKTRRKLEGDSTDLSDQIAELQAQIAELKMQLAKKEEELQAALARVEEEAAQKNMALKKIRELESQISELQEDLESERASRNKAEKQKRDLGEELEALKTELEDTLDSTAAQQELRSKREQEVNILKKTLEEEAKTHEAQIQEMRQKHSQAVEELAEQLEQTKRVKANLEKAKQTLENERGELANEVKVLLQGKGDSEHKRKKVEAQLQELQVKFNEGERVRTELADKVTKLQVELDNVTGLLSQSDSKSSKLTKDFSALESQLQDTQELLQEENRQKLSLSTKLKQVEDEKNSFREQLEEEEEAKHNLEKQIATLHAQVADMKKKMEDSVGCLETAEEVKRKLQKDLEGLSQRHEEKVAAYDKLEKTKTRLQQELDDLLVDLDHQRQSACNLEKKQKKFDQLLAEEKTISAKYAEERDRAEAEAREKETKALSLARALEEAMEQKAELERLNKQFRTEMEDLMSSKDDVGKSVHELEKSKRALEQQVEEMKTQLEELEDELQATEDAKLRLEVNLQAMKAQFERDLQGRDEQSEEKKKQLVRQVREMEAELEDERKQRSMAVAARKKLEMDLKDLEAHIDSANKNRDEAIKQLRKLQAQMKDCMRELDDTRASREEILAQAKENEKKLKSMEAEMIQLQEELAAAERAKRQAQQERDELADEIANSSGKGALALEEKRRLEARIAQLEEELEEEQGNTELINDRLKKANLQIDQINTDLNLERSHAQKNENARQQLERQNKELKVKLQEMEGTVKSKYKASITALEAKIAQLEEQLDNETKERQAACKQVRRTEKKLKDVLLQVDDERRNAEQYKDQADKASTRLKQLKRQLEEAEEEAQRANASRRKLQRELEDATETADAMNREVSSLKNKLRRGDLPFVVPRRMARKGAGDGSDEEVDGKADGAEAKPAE
Sequence of Non-muscle Myosin IIA ATPase (P60660 whole entry partner): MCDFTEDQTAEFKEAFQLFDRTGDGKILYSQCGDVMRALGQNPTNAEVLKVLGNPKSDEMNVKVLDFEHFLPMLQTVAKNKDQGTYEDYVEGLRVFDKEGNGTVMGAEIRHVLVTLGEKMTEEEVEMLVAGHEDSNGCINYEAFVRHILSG
Sequence of Non-muscle Myosin IIA ATPase (O14950 whole entry partner): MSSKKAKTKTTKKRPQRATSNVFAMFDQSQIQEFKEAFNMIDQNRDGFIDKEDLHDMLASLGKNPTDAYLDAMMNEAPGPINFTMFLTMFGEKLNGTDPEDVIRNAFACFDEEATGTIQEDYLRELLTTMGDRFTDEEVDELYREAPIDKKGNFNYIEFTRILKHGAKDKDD

[7] = biological target: Smooth Muscle Myosin II ATPase (turkey smooth muscle); conditions: in vitro, read-out: IC50, inhibition of Smooth Muscle Myosin II ATPase; cited from earlier work
[8] = system: newborn mouse bladder; conditions: 10 uM; cited from earlier work
[9] = system: rat bladder smooth muscle strip (detrusor); test: Pre-incubation with blebbistatin: carbachol-induced rat detrusor contraction; format: cell-based; conditions: for attenuation of carbachol (CC) responsiveness: pre-incubation 10 μM for 30 min, 1 μM CC
Description: as §1, §2

[10] = system: bladder of awake rat; test: Awake rat cystometry (urodynamics) after intravesical blebbistatin; format: in vivo
Description: Cystometric evaluation of bladder function was performed as previously described on a separate set of 5 rats. See Malmgren A, Andersson P O, Uvelius B. “Bladder function in rats with short- and long-term diabetes; effects of age and muscarinic blockade” J Urol 1989; 142:1608-14; Melman A, Zotova E, Kim M, et al. “Longitudinal studies of time-dependent changes in both bladder and erectile function after streptozotocin-induced diabetes in Fischer 344 male rats” BJU Int 2009, 104:1292-300; Suadicani S O, Urban-Maldonado M, Tar M T, Melman A, Spray D C. “Effects of ageing and streptozotocin-induced diabetes on connexin43 and P2 purinoceptor expression in the rat corpora cavernosa and urinary bladder” BJU Int 2009; 103:1686-93. Under anesthesia, a PE 50 catheter with a cuff was surgically inserted into the bladder dome and exited through an orifice made in the back of the animal. […] The bladder catheter was connected to a 2-way valve that is, in turn connected to a pressure transducer as well as an infusion pump (model PHD 2000, Harvard Instruments; MA, USA). Rat bladder was infused with vehicle for 30 min and then cystometry was performed. After that, the same rat was treated with 250 nmols blebbistatin for the same period and cystometry was similarly repeated. One rat had bladder over-activity possibly due to post-surgical infection and thus blebbistatin was kept in the bladder for only about 5 min. The rate of infusion of room temperature saline was set at 10 ml/h. Bladder activity was continuously recorded after the first micturition, and subsequently at least 2 h of data were recorded from each rat. Statistical analysis: Results are expressed as mean±SEM for n experiments. Statistical analysis was performed using either the Student's t-test (when two sample treatments were being compared) or using ANOVA when multiple means were compared. p<0.05 was considered significant.
Bladder function was evaluated using the following urodynamic criteria: bladder capacity: (BC=volume of infused saline discharged at micturition); micturition volume (MV=the volume of urine discharged during micturition); residual volume (RV=volume of infused saline minus micturition volume); basal pressure (BP=the lowest average bladder pressure recorded during cystometry); micturition pressure (MP=peak bladder pressure during micturition); Bcom=bladder compliance; MF=micturition frequency; and the * indicates <0.05 vs vehicle.

[11] = biological target: Myosin II ATPase in rabbit striated skeletal muscle; conditions: in vitro, read-out: IC50, inhibition of Myosin II ATPase; cited from earlier work
[12] = system: human bladder smooth muscle strip; test: Relaxation of human bladder (base) strips pre-contracted with 20 nM endothelin-1; format: cell-based; conditions: for relaxation of human bladder pre-contracted with endothelin-1: 20 nM ET-1; for relaxation/block of endothelin-1 induced human bladder contraction (in words): dose-dependent
Description: as §1, §2

[13] = system: Non-muscle Myosin ATPases; conditions: single concentration of 100 micromolar; Toth table IV; cited from earlier work
[14] = biological target: Porcine Cardiac Muscle Myosin II ATPase (Sus scrofa, UniProt P79293); conditions: single concentration of 100 micromolar; Toth table IV; cited from earlier work
Sequence of Porcine Cardiac Muscle Myosin II ATPase (P79293 whole entry): as the sequence (P79293 whole entry) above

[15] = with blebbistatin (10 μM), n = 15 strips from 6 rats
[16] = awake rats, intravesical 250 nmols blebbistatin 30 min, n = 5

Cc1ccc2c(c1)C(=O)C1(O)CCN(c3ccccc3)C1=N2 (racemic) [blebbistatin, 3a-hydroxy-6-methyl-1-phenyl-1,2,3,3a-tetrahydro-4H-pyrrolo[2,3b]-quinolin-4-one]
block of adult mouse bladder smooth muscle contraction [1]: did not block
decrease in the amplitude of spontaneous smooth muscle contractions ([2]; 10 am (so in the source)): ~60%
Amplitude of spontaneous contractions [2, 15]: 118 ± 19.33 mg and 120 ± 19 mg
Basal Tone [2, 15]: 310 ± 16 mg
Frequency of spontaneous contractions [2, 15]: 5.5 +/− 1.2 cycles/min
IC50 [3]: 1.2 µM
inhibition of EFS-induced bladder contraction [4]: about 50%
inhibition of EFS-induced bladder contraction ([4]; listed as racemic blebbistatin): 50%
time needed to relax the muscle strip in vitro in a tissue bath [5]: 30 to 60 min
baseline and peak phasic force of contraction (FIG. 3) ([5]; 10 uM, strip pre-contracted with 1 uM carbacol): significant decrease
relaxation of KCl and CC evoked detrusor contraction ([5]; 1 μm): 20-30%
relaxation of KCl and CC evoked detrusor contraction ([5]; 5 μm): 80-100%
relaxation of KCl and carbachol induced rat detrusor contraction (in words) ([5]; dose-dependent, 1-10 μM cumulative): completely relaxed
IC50 [6]: 5.1 µM
IC50 [7]: 79.6 µM
inhibition of bladder contraction of a newborn mouse [8]: did inhibit
attenuation of carbachol (CC) responsiveness [9]: about 65%
attenuation of carbachol (CC) responsiveness ([9]; listed as BLEB): about 65%
attenuation of carbachol (CC) responsiveness ([9]; listed as racemic blebbistatin): ~65%
lowering of basal tone ([9]; pre-incubation 10 μm for 30 min): around 300 mg
BC (bladder capacity) [10, 16]: 1.4 +/− 0.16 * ml
BP (basal pressure) [10, 16]: 6.9 +/− 1.8 cm H20
MF (micturition frequency) [10, 16]: 7.2 +/− 1.3 *
MP (micturition pressure) [10, 16]: 42 +/− 13 cmH20
MV (micturition volume) [10, 16]: 1.4 +/− 10 * ml
RV (residual volume) [10, 16]: 0.03 ± 0.01 mL
decline of voiding frequency ([10]; rat with overactive bladder (OAB), blebbistatin kept in bladder about 5 min): over 50%
IC50 [11]: 0.5 µM
relaxation of human bladder pre-contracted with endothelin-1 ([12]; 1 μM): 60%
relaxation of human bladder pre-contracted with endothelin-1 ([12]; 3 am (so in the source)): ~100%
relaxation/block of endothelin-1 induced human bladder contraction (in words) [12]: completely blocked
relaxation/block of endothelin-1 induced human bladder contraction (in words) ([12]; listed as Racemic blebbistatin): completely relaxed

Cc1ccc2c(c1)C(=O)C1(O)CCN(c3ccccc3)C1=N2 (single isomer, unassigned; (+)) [(+)-blebbistatin]
bladder relaxation in vitro, enantiomer compared with racemic blebbistatin mixture [5]: did not induce significant bladder relaxation

Cc1ccc2c(c1)C(=O)[C@]1(O)CCN(c3ccccc3)C1=N2 [(−)-blebbistatin, (−)-3aS-hydroxy-6-methyl-1-phenyl-1,2,3,3a-tetrahydro-4H-pyrrolo[2,3b] quinolin-4-one]
inhibition of Non-muscle Myosin ATPases [13]: inhibited
bladder relaxation in vitro, enantiomer compared with racemic blebbistatin mixture [5]: equipotent
inhibition of cardiac muscle Myosin ATPase [14]: inhibited

CN1[C@@H]2CC[C@H]1C[C@@H](OC(=O)C(CO)c1ccccc1)C2 (stereo partly shown) [atropine]
time needed to relax the muscle strip in vitro in a tissue bath [5]: 3 to 5 min
